Source: PMC10969504 (2024)

Test system: ENR-Apt 6 (DNA, aptamer) GCGGCTGCTTACGGATAGAAGGCGGATGGAGAAATGAACCGGGGTGGTCCGTTGTCCATCCGTAAAGCCCAAGTC
Experiment: graphene oxide fluorescence quenching/recovery, aptamer titrated
Details: aptamer 25-200 nM in ultrapure water; 20 μg/mL GO; 250 μM ENR solution added (1:1:1 v/v); apparent

Kd: 35.08 nM
Structure (SMILES): CCN1CCN(c2cc3c(cc2F)c(=O)c(C(=O)O)cn3C2CC2)CC1
